Test results reported in patent US9688624B2, “DP2 antagonist and uses thereof” (Brickell Biotech, Inc., priority 2010, dated 2017).
Structures can show the parent of a compound that is named as a salt.

Assays:
[1] = system: ovalbumin (OVA)-induced allergic rhinitis; test: Mouse allergic rhinitis model; type: in vivo; settings: 10 mg/kg PO daily
Protocol: Example 18: Mouse Allergic Rhinitis Model
Compound 2 was evaluated in a mouse model of ovalbumin (OVA)-induced allergic rhinitis in which nasal ovalbumin challenges to OVA-primed mice elicits an increase in sneezing and nasal rubs (Methods were adapted from those detailed in Nakaya, M., et al. 2006, Laboratory Investigation, 86:917-926). OVA-primed mice received an intranasal challenge of OVA daily for 5 consecutive days. The number of sneezes and nasal rubs were counted over an 8 minute recording session on days 1, 3 and 5 immediately following OVA challenge. OVA caused a significant increase in both sneezing behavior and nasal rubs when compared to intranasal phosphate buffered saline (PBS) challenge. […] The plasma exposure for Compound 1 measured in a satellite group was 1360 nM, 460 nM, 210 nM and 90 nM for time points 1, 2, 4, and 6 hr post-dose, respectively.

DP2 receptor = DP2 receptor (Homo sapiens (Human), UniProt Q9Y5Y4); test: Phase I single ascending dose study, ex vivo PGD2-induced blood eosinophil shape change (ESC); type: in vivo; settings: humans
DP2 receptor, sequence (Q9Y5Y4 whole entry): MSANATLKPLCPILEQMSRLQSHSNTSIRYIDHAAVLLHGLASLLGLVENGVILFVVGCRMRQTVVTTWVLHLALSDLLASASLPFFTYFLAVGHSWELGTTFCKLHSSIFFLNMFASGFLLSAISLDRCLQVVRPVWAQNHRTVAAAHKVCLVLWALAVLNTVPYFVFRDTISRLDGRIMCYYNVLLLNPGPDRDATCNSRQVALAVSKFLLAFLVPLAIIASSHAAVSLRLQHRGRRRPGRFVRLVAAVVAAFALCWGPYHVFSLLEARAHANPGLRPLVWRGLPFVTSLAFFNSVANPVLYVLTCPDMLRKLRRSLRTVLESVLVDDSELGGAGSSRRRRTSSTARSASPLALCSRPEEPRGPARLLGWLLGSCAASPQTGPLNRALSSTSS
Protocol: Procedure Evaluate Effects of Compound 1 on Ex Vivo PGD2-Induced Blood Eosinophil Shape Change (ESC)
Pre dose blood is drawn and challenged with PGD2 to determine baseline shape change as described above in Example 17. At varying times after dosing blood is drawn for both pharmacokinetic analyses of drug concentration in blood, and also for PGD2 challenge and eosinophil shape change determination. The extent of receptor blockage is determined from the relationship between drug blood concentration and percentage inhibition of eosinophil shape change.

CYP2D6 = CYP2D6 (Homo sapiens (Human), UniProt P10635); test: Extracellular cytochrome P450 inhibition (microsomes); type: in vitro ADME; settings: 2D6, dextromethorphan O-demethylation
CYP2D6, sequence (P10635 whole entry): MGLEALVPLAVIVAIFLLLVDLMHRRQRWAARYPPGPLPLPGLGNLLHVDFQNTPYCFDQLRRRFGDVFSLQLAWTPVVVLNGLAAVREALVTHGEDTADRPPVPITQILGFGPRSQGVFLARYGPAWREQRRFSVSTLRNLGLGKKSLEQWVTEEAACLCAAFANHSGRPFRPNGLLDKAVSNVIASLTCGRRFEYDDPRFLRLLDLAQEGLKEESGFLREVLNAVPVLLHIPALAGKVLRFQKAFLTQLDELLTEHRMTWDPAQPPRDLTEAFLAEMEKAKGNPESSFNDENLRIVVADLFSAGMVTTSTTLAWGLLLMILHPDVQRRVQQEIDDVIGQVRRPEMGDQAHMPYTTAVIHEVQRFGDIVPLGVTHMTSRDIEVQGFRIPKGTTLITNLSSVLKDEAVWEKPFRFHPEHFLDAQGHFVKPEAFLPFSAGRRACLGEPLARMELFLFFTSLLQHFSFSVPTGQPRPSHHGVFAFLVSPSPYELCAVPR

[2] = Regional dosing study in rat (pharmacokinetics); type: in vivo; settings: for Tmax / AUC / Cmax / bioavailability / half-life: Sprague-Dawley, in vivo
Text: Example 11: Regional Dosing Study
Male Sprague-Dawley rats (weighing from about 200 to about 300 grams) in the fasted state received a single injection of a solution of Compound 2 (5% methocel) in the duodenum, jejunum or ileum. This was compared with PO administration of the same formulation of Compound 2. […]

CYP2C9 = CYP2C9 (Homo sapiens (Human), UniProt P11712); type: in vitro ADME; settings: human hepatocytes, 10 μM
[3] = target: recombinant human CRTH2 receptor (Homo sapiens (Human), UniProt Q9Y5Y4); test: In vitro membrane GTPγS binding assay; type: biochemical; settings: average; 80 nM PGD2, 0.2% human serum albumin
recombinant human CRTH2 receptor, sequence (Q9Y5Y4 whole entry): as the sequence (Q9Y5Y4 whole entry) above
Protocol: Example 16: In Vitro GTPγS Binding Assay
The ability of Compound 1 to inhibit binding of GTP to DP2 is assessed via a membrane GTPγS assay. CHO cells stably expressing the recombinant human CRTH2 receptor are resuspended in 10 mM Hepes, 7.4 containing 1 mM DTT, lysed and centrifuged at 75,000×g to pellet the membranes. The membranes are resuspended in 10 mM Hepes, 7.4 containing 1 mM DTT and 10% glycerol. Membranes (˜12.5 μg per well) are incubated in 96-well plates with 0.05 nM [^35S]-GTPγS, 80 nM PGD2, 5 μM GDP, and Compound 1 in Assay Buffer (50 mM Hepes, pH 7.4, 100 mM NaCl, 5 mM MgCl2 and 0.2% human serum albumin) for 60 minutes at 30° C. The reactions are terminated by rapid filtration through Whatman GF/B glass fibre filter plates. The filter plates are washed 3 times with 1 ml cold Assay Buffer and dried. Scintillant is then added to the plates and the radioactivity retained on the filters is determined on a Packard TopCount (Perkin Elmer). Specific binding is determined as total radioactive binding minus non-specific binding in the […] of the ligand (80 nM PGD2). IC50s were determined using Graphpad prism analysis of drug titration curves.

With `COc1ccc(CC(=O)O)cc1Oc1ccc(NC(=O)C(C)(C)C)cc1CSC(C)(C)C` [Compound 2, 2-(3-(2-((tert-butylthio)methyl)-4-(2,2-dimethyl-propionylamino)phenoxy)-4-methoxyphenyl)acetic acid, sodium salt] the “nasal responses (sneezes and nasal rubs) after OVA challenge” value [1] was “significantly reduced”, the “24 hr PD response (inhibition of ex vivo ESC)” value (DP2 receptor; 500 mg single dose, 24 hr) was roughly 50% and the “pharmacodynamic dose response (ex vivo ESC inhibition)” value (DP2 receptor; >150 mg, at 0.5, 2 hr and 8 hr) was “maximal inhibition achieved”. The IC50 (CYP2D6) was greater than 50000 nM, the Tmax ([2]; iv, 2 mg/kg) was 0.08 h and the AUC ([2]; male, 10 mg/kg, duodenum) was 5010 ng·h/mL. It also gave a Cmax ([2]; male, 10 mg/kg, duodenum) of 4310 ng/mL, a Tmax ([2]; male, 10 mg/kg, duodenum) of 0.25 h and a bioavailability ([2]; male, 10 mg/kg, duodenum) of 27.3%. For the same compound, the half-life ([2]; male, 10 mg/kg, duodenum) was 4.12 h, the AUC ([2]; male, 10 mg/kg, ileum) was 1980 ng·h/mL and the Cmax ([2]; male, 10 mg/kg, ileum) was 610 ng/mL. For the same compound, the Tmax ([2]; male, 10 mg/kg, ileum) was 0.63 h, the bioavailability ([2]; male, 10 mg/kg, ileum) was 10.8% and the half-life ([2]; male, 10 mg/kg, ileum) was 5.06 h. It also gave an AUC ([2]; male, 10 mg/kg, jejunum) of 8110 ng·h/mL, a Cmax ([2]; male, 10 mg/kg, jejunum) of 12700 ng/mL and a Tmax ([2]; male, 10 mg/kg, jejunum) of 0.25 h. For the same compound, the bioavailability ([2]; male, 10 mg/kg, jejunum) was 44.2%, the half-life ([2]; male, 10 mg/kg, jejunum) was 5.29 h and the AUC ([2]; male, iv, 2 mg/kg) was 3670 ng·h/mL. For the same compound, the half-life ([2]; male, iv, 2 mg/kg) was 2 h, the AUC ([2]; male, po, 10 mg/kg) was 4370 ng·h/mL and the Cmax ([2]; male, po, 10 mg/kg) was 3060 ng/mL. For the same compound, the Tmax ([2]; male, po, 10 mg/kg) was 0.75 h, the bioavailability ([2]; male, po, 10 mg/kg) was 23.8% and the half-life ([2]; male, po, 10 mg/kg) was 1.5 h. For the same compound, the site of absorption ([2]; regional dosing) was “preferentially absorbed in the jejunum”.

For `COc1ccc(CC(=O)O)cc1Oc1ccc(NC(=O)C(C)(C)C)cc1CSC(C)(C)C` [Compound 1, 2-(3-(2-((tert-butylthio)methyl)-4-(2,2-dimethyl-propionylamino)phenoxy)-4-methoxyphenyl)acetic acid], the “induction of CYP2C9” value (CYP2C9) was “not a strong inducer” and the IC50 [3] was 2.8 nM.
